Assay [1] deals with His-tagged KRAS G12D protein (Homo sapiens, UniProt P01116, G12D). Put plainly: KRAS G12D TR-FRET Assay. The assay is classed as binding. In a few lines: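 His-KRAS G12D (20 nM) was preincubated with titrated compound for 30 min at RT in HEPES pH 7.4 buffer with MgCl2, 10 μM GDP. Biotin-KRPep-2d (20 nM) was then added for 1 h, followed by Eu-anti-His/streptavidin-d2 for 1 h. The 665/615 nm TR-FRET ratio was fitted 4-parameter to give IC50.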
On the technique in general: Time-resolved FRET reads energy transfer from a long-lived donor to a nearby acceptor.

Assay [2] has as its target GDP-bound KRAS protein (aa 1-169), containing both G12D and C118A amino acid substitutions (Homo sapiens, UniProt P01116, C118A/G12D). Put plainly: KRAS G12D Coupled Nucleotide Exchange Assay. The assay is classed as biochemical. How it is done: KRAS G12D Coupled Nucleotide Exchange Assay
Following compound pre-incubation, purified SOS protein (aa 564-1049) and GTP (Roche 10106399001) were added to the assay wells and incubated for an additional 30 min. […] The assay plates were then read on a PerkinElmer EnVision Multilabel Reader, using AlphaScreen® technology, and data were analyzed using a 4-parameter logistic model to calculate IC50 values.

The test system of assay [3] is Phosphorylation of ERK1/2 in AsPC-1 cells. Put plainly: Phospho-ERK1/2 MSD Assay. To be noted: Homo sapiens, ASPC1, read-out: 2 h p-ERK (AsPC-1 cells), IC50; AsPC-1 cells, 2 h compound treatment. The assay is classed as cell-based. In a few lines: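 Phospho-ERK1/2 was quantified by MSD whole-cell lysate immunoassay in RIPA lysates made with protease/phosphatase inhibitors. A 4-parameter logistic model gave IC50.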

For 1 molecule, IC50 results are on record in patent US20250179077A1, “QUINAZOLINE COMPOUNDS AND USES THEREOF AS INHIBITORS OF MUTANT KRAS PROTEINS” (AMGEN INC., priority 2022, published 2025).

Each structure is given as a SMILES string.

Sequence of His-tagged KRAS G12D protein (P01116 1-188 isoform P01116-2 G12D): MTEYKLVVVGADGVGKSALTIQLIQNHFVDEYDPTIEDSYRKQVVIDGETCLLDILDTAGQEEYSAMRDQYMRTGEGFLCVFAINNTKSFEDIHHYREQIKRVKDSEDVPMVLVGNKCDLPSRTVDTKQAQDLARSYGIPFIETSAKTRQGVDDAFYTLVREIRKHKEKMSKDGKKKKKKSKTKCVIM
Sequence of GDP-bound KRAS protein (aa 1-169), containing both G12D and C118A amino acid substitutions (P01116 1-169 isoform P01116-2 G12D/C118A): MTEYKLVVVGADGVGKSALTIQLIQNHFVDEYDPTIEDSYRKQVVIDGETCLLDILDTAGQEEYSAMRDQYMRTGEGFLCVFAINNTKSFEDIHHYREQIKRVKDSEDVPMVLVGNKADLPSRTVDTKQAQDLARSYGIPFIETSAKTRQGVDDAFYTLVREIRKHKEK

Turning to `C/C=C\c1c(Cl)cc2[nH]ncc2c1-c1c(F)cc2c(N3CCC[C@@](C)(O)C3)nc(OC[C@@]34CCCN3C[C@H](F)C4)nc2c1F` [Example 119, (3R)-1-(7-(6-Chloro-5-((Z)-prop-1-en-1-yl)-1H-indazol-4-yl)-6,8-difluoro-2-(((2R,7aS)-2-fluorotetrahydro-1H-pyrrolizin-7a(5H)-yl)methoxy)quinazolin-4-yl)-3-methylpiperidin-3-ol], the values for the 50% inhibitory concentration (IC50) in assay [1], in assay [2] and in assay [3] were 16 nM, 11 nM and 111 nM, respectively.

As usually defined, the IC50 is the midpoint of a concentration-inhibition curve.
